According to BindingDB's records for PubMed 8996189 (Pfizer, 1997):

Legend:
Adenosine receptor A3 [1] = molecular target: T1, Adenosine receptor A3 (Oryctolagus cuniculus, UniProt O02667)
T1 sequence (O02667 whole entry): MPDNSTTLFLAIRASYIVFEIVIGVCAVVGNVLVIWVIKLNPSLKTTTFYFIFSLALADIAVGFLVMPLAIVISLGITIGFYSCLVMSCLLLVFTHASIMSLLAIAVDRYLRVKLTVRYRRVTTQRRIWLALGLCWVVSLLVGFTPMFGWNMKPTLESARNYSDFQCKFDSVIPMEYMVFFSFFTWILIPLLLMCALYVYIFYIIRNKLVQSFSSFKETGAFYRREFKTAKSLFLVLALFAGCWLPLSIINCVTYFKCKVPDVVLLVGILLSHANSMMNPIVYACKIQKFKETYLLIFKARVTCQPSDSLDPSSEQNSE

Adenosine receptor A1 [2] = molecular target: T2, Adenosine receptor A1 (Oryctolagus cuniculus, UniProt P34970)
T2 sequence (P34970 whole entry): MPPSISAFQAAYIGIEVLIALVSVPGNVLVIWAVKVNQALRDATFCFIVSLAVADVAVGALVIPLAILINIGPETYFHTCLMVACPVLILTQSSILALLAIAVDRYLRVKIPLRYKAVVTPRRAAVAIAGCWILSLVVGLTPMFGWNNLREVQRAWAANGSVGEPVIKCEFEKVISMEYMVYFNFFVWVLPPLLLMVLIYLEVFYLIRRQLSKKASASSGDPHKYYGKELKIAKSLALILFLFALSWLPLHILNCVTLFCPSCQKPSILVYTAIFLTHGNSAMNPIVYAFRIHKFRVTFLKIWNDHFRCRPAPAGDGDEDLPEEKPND

Adenosine receptor A1 [3] = molecular target: T3, Adenosine receptor A1 (Homo sapiens, UniProt P30542)
T3 sequence (P30542 whole entry): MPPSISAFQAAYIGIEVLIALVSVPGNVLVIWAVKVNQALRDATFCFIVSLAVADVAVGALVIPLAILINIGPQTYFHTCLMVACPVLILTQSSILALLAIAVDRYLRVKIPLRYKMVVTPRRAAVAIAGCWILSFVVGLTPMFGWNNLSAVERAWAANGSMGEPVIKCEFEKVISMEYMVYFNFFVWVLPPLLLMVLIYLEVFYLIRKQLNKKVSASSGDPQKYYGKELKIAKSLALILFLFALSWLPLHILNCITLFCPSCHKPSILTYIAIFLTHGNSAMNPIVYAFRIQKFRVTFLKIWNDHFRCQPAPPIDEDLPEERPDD

Adenosine receptor A3 [4] = molecular target: T4, Adenosine receptor A3 (Ovis aries, UniProt P35342)
T4 sequence (P35342 whole entry): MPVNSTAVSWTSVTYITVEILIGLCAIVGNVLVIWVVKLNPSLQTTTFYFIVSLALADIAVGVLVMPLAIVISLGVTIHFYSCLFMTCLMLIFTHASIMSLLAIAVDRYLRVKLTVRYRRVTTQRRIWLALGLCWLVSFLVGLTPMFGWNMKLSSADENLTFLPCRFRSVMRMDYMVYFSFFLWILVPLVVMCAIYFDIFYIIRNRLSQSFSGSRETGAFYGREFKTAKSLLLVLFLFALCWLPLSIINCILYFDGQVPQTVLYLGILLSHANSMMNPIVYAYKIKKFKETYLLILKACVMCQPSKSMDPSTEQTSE

Adenosine receptor A3 [5] = molecular target: T5, Adenosine receptor A3 (Homo sapiens, UniProt P0DMS8)
T5 sequence (P0DMS8 whole entry): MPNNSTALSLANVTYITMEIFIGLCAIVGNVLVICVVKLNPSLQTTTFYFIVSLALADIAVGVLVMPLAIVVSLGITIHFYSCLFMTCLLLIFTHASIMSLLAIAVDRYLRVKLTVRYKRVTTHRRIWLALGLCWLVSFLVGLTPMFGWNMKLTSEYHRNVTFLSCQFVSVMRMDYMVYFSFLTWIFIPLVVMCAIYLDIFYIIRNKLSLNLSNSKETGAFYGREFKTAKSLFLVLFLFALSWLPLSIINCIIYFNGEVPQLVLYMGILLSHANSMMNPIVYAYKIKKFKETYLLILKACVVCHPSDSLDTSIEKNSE

SMILES | Ki (Adenosine receptor A3 [1]) [nM] | Ki (Adenosine receptor A1 [2]) [nM] | Ki (Adenosine receptor A1 [3]) [nM] | Ki (Adenosine receptor A3 [4]) [nM] | Ki (Adenosine receptor A3 [5]) [nM]
Cn1c(=O)c2[nH]c(-c3ccc(S(=O)(=O)O)cc3)nc2n(C)c1=O [4-(1,3-Dimethyl-2,6-dioxo-2,3,6,7-tetrahydro-1H-purin-8-yl)-benzenesulfonic acid] | > 10000 | – | – | – | –
CCNC(=O)[C@H]1O[C@@H](n2cnc3c(N)ncnc32)[C@H](O)[C@@H]1O | 27 | 2 | – | – | –
CCCn1c(=O)c2[nH]c(C3CCCC3)nc2n(CCC)c1=O [DPCPX] | 1120 | – | – | – | –
CCCn1c(=O)c2[nH]c(-c3ccc(C=CC(=O)O)cc3)nc2n(CCC)c1=O [NSC_129447] | 746 | 3 | 120 | 21 | 40
CNC(=O)C1OC(n2cnc3c(NCc4cccc(I)c4)ncnc32)C(O)C1O (stereo not drawn) [3,4-dihydroxy-5-(6-{[(3-iodophenyl)methyl]amino}-9H-purin-9-yl)-N-methyloxolane-2-carboxamide] | – | 30 | – | – | –

Continued by falling Ki (Adenosine receptor A3 [1]), values first:

Ki (Adenosine receptor A3 [1]) [nM] | Ki (Adenosine receptor A1 [2]) [nM] | Ki (Adenosine receptor A1 [3]) [nM] | Ki (Adenosine receptor A3 [4]) [nM] | Ki (Adenosine receptor A3 [5]) [nM] | SMILES
329 | 5 | – | – | – | CCCn1c(=O)c2[nH]c(-c3ccc(OCC(=O)NCCN)cc3)nc2n(CCC)c1=O [N-(2-Amino-ethyl)-2-[4-(2,6-dioxo-1,3-dipropyl-2,3,6,9-tetrahydro-1H-purin-8-yl)-phenoxy]-acetamide]
49 | – | – | – | – | OC[C@H]1O[C@@H](n2cnc3c(NC4CCCC4)ncnc32)[C@H](O)[C@@H]1O
49 | – | – | – | – | CC(Cc1ccccc1)Nc1ncnc2c1ncn2C1OC(CO)C(O)C1O (stereo not drawn) [R-N6-(2-phenylisopropyl) adenosine]
47 | 6 | – | – | – | Nc1ccc(CCNc2ncnc3c2ncn3C2OC(CO)C(O)C2O)cc1 (stereo not drawn) [ChEMBL_198532]
5 | 4 | – | – | – | Nc1ccc(CNc2ncnc3c2ncn3[C@@H]2O[C@H](CO)[C@@H](O)[C@H]2O)cc1I [IABA]
